Measured values as given in publication PMC11513893, “Discovery of Oral Degraders of the ROS1 Fusion Protein with Potent Activity against Secondary Resistance Mutations” (Journal of Medicinal Chemistry, 2024).
Several values for one entry are separate records, joined by “and”; a condition that tells them apart may be missing. Identical values can stand only once.

Tests used:
[1] = Pharmacokinetics study in Sprague–Dawley rats; type: in vivo; settings: rat
[2] = test system: Ba/F3 SLC34A2-ROS1 G2032R xenograft tumors; assay: Mouse efficacy study, Ba/F3 SLC34A2-ROS1 G2032R xenograft; type: in vivo; settings: NOD/SCID mice
Protocol: All the procedures related to animal handling, care, and treatment in this study were performed according to guidelines approved by the Institutional Animal Care and Use Committee (IACUC) of Xavier University of Louisiana following the guidance of the AAALAC. Ba/F3-ROS1 and Ba/F3-ROS1-G2032R cells were maintained in RPMI 1640 medium supplemented with 10% fetal bovine serum. The cells growing in an exponential growth phase were harvested and counted for tumor inoculation. Female NOD/SCID mice 6–8 weeks of age were allowed to adapt to laboratory conditions for 10 days prior to dosing and were allowed food and water ad libitum. Each mouse was inoculated subcutaneously in the right flank with Ba/F3 CD74-ROS1 or Ba/F3 SL34A2-ROS1 G2032R cells (1 × 10^6) in 0.2 mL of PBS mixed with Matrigel (50:50) for tumor development.

ROS1 (G2101C) = ROS1 (G2101C) (Homo sapiens, UniProt P08922, G2101C); assay: Kinase assay; type: biochemical; settings: average of duplicate measurements
FLT3 = FLT3 (Homo sapiens, UniProt P36888); assay: Kinase assay; type: biochemical; settings: average of duplicate measurements
CLK1 = CLK1 (Homo sapiens, UniProt P49759); assay: Kinase assay; type: biochemical; settings: average of duplicate measurements
CAMK2D = CAMK2D (Homo sapiens, UniProt Q13557); assay: Kinase assay; type: biochemical; settings: average of duplicate measurements
NUAK1 = NUAK1 (Homo sapiens, UniProt O60285); assay: Kinase assay; type: biochemical; settings: average of duplicate measurements
CAMK2G = CAMK2G (Homo sapiens, UniProt Q13555); assay: Kinase assay; type: biochemical; settings: average of duplicate measurements
EGFR = EGFR (Homo sapiens, UniProt P00533); assay: Kinase assay; type: biochemical; settings: average of duplicate measurements
C-MET = C-MET (Homo sapiens, UniProt P08581); assay: Kinase assay; type: biochemical; settings: average of duplicate measurements
ROS1 (G2032R) = assay: Degradation assay (Western blot in treated cells); type: cell-based; settings: average of duplicate measurements
Protocol: However, the degradation selectivity of 9o often contrasts with its kinase binding selectivity as determined in cells treated with 9o where the kinase level was measurable by Western blot analysis. […] For example, FLT3, CHEK2, and FES, all with kinase binding at <10 nM, were only moderately or minimally degraded, if at all (Table 9).
Protein levels were analyzed using a WES instrument according to the WES User Guide from ProteinSimple in duplicate experiments. The samples were mixed with the fluorescent 5 master mix (ProteinSimple) and then heated at 95 °C for 5 min. Boiled samples, biotinylated protein ladder, antibody diluent, Streptavidin-HRP, primary antibodies, ProteinSimple horseradish peroxidase conjugated antirabbit or antimouse secondary antibodies, luminol-peroxide, and wash buffer were loaded into the WES plate (Wes 12–230 kDa Prefilled Plates with Split Buffer, ProteinSimple). The plates and capillary cartridges were loaded into the WES instrument, and protein separation, antibody incubation, and imaging were performed according to manufacturer’s instructions. Compass software (ProteinSimple) was used to acquire the data and to generate the virtual blot image reconstruction and chemiluminescence signal intensity electropherograms. […] Protein levels are expressed as the AUC of the peak chemiluminescence intensity. […]

H2228 cells = assay: Whole cell proteomic analysis; type: cell-based, human; settings: 100 nM, 24 h
Protocol: To minimize the effect of signaling blockade on proteomic changes, we decided that a more accurate quantitative determination of proteomic alterations would be to compare degrader-treated to inhibitor-treated.
Cell pellets were dissolved in 1 mL of RIPA buffer, 10 μL of phosphatase inhibitor, and 10 μL of protease inhibitor. Proteins were extracted and concentration was determined by the BCA assay. The protein samples were digested with sequencing grade modified trypsin (Promega Corp; Madison, WI) according to the manufacturer’s instructions. The peptides were labeled using the TMT Isobaric Mass Tagging kit (Thermo Fisher Scientific; # 90,060–90,061; Waltham, MA). The labeled peptide aliquots were then pooled together for subsequent fractionation and analysis. The TMT-labeled peptide mixtures were separated by an automated Easy-nLC1000 system coupled with a Q-Exactive spectrometer (Thermo Finnigan, Waltham, MA). The identification of proteins was performed using Proteome Discoverer software v2.3 (Thermo Fisher Scientific; Waltham, MA) and Mascot v2.6 (Matrix Science, Boston, MA), based on “Uniprot Human” database. The proteins that were identified on the basis of at least one unique peptide were included in the data. The ratios of TMT reporter ion abundance in 9o-treated cells and inhibitor-treated cells were used to calculate protein relative abundance.

Chain of FLT3 (P36888 27-993, species assumed): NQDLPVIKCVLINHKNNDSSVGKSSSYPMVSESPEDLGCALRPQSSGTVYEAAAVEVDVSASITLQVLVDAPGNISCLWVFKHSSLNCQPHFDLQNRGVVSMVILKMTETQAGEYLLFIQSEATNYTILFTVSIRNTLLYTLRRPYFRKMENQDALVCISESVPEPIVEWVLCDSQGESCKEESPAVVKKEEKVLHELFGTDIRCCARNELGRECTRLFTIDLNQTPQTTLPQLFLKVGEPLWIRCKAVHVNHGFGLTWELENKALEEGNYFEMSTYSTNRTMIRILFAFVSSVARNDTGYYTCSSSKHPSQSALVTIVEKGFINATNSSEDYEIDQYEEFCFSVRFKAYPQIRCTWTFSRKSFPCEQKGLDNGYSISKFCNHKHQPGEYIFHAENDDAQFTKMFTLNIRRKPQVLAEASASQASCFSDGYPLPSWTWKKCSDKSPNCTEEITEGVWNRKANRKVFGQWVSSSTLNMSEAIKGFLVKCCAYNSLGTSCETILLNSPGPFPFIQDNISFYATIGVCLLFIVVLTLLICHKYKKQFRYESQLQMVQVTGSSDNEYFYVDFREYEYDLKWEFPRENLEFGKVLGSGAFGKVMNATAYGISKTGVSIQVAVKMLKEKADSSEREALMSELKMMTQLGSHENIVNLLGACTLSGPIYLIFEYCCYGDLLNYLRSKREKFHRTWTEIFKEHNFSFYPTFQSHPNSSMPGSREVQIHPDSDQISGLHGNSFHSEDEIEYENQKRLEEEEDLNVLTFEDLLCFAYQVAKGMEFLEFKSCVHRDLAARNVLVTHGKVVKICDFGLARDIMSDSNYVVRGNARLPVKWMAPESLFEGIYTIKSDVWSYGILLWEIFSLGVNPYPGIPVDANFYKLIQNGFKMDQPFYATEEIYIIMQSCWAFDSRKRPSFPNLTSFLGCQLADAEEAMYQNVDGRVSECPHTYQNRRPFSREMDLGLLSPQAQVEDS
Chain of C-MET (P08581 25-1390): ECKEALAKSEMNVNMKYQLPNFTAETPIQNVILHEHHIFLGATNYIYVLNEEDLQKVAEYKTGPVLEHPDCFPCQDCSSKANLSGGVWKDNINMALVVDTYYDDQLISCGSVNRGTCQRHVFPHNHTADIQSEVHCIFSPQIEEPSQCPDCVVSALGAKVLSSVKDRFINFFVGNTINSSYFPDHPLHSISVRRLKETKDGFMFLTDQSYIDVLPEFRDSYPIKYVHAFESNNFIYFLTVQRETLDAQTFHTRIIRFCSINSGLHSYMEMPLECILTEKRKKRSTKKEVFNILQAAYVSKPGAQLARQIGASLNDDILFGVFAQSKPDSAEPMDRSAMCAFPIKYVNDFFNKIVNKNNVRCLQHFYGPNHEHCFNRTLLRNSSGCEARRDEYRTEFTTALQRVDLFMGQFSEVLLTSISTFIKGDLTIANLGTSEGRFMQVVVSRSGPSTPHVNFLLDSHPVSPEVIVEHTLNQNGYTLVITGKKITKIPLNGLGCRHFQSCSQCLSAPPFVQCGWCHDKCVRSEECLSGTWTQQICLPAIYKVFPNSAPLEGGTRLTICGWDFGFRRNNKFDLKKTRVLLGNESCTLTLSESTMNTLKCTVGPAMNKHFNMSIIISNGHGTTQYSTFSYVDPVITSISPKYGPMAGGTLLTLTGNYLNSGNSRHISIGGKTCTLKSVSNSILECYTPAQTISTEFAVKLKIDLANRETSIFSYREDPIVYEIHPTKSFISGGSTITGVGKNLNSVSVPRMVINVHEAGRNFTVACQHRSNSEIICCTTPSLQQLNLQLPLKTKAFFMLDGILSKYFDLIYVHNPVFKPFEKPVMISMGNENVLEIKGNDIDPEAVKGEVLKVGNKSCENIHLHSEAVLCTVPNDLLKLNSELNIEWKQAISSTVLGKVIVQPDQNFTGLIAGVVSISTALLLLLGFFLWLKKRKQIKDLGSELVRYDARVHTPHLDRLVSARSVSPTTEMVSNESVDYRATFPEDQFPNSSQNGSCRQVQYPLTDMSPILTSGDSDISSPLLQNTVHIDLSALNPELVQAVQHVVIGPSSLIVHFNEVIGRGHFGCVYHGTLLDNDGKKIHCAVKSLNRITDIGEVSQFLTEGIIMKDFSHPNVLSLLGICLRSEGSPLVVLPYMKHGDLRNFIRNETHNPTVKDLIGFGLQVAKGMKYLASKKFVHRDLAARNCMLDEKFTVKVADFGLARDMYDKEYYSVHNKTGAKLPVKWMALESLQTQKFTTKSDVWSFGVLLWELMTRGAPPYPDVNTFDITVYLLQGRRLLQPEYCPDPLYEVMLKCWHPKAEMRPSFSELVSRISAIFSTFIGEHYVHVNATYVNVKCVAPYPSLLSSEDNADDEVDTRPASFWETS
Chain of CLK1 (P49759 whole entry): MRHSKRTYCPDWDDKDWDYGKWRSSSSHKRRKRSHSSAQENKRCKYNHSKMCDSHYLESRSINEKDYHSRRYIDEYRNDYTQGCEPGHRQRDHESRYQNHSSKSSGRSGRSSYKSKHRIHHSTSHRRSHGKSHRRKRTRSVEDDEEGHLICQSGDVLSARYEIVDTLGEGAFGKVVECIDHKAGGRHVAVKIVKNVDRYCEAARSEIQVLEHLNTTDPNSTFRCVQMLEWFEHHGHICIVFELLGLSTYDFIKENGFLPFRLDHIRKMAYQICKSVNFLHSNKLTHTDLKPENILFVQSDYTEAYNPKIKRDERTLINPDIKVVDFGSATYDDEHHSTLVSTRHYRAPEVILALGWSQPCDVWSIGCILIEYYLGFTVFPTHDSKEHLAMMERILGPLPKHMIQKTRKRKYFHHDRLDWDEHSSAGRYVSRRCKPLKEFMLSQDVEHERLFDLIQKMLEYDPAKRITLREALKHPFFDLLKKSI
Chain of CAMK2D (Q13557 whole entry, species assumed): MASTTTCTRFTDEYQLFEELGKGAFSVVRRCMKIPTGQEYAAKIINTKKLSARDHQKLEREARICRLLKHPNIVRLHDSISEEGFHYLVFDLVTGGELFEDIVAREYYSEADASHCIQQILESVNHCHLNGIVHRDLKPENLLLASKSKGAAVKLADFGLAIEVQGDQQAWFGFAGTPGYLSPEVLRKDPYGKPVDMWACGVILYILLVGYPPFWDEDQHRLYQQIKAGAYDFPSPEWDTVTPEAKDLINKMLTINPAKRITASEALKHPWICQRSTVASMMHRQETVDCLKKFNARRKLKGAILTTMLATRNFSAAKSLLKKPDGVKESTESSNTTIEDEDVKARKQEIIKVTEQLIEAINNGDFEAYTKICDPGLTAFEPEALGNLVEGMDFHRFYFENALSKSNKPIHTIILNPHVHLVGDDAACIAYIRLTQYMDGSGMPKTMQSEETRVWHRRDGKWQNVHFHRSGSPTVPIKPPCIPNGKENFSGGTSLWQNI
Chain of CAMK2G (Q13555 whole entry, species assumed): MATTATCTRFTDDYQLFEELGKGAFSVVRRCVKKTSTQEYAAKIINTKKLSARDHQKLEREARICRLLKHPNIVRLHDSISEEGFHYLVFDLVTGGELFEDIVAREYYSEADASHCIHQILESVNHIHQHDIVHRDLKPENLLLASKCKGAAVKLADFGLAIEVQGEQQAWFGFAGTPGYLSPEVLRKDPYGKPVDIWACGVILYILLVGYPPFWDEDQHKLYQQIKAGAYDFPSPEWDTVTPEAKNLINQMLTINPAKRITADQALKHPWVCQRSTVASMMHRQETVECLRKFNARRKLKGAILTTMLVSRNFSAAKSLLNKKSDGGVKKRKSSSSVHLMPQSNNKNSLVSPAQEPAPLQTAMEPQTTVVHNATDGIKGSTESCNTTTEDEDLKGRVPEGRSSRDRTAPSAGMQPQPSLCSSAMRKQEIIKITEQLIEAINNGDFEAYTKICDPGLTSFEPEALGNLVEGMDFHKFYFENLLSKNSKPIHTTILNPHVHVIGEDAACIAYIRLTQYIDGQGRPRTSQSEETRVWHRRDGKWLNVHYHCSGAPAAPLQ
Chain of NUAK1 (O60285 whole entry, species assumed): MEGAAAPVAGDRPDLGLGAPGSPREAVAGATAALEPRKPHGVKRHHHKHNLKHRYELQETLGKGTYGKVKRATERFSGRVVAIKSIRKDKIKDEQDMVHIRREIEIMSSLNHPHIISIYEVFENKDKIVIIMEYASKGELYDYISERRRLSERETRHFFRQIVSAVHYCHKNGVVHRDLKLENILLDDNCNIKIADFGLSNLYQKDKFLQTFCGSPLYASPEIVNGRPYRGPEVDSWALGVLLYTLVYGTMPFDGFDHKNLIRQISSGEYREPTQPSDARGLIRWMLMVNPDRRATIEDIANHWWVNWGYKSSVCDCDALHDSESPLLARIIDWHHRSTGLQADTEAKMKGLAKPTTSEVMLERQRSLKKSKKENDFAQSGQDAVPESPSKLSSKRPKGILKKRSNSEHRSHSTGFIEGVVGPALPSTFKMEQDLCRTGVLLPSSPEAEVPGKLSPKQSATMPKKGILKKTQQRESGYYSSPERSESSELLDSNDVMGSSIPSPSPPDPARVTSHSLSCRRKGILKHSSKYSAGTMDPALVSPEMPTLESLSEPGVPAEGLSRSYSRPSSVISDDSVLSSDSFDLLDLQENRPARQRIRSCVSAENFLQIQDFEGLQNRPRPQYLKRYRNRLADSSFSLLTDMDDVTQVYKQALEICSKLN

- Cmax at 24 h ([1]; Sprague-Dawley [Crl: CD (SD)], plasma, 5 mg/kg po): 94 ng/mL
- bioavailability ([1]; Sprague-Dawley [Crl: CD (SD)], plasma, 5 mg/kg po vs 0.5 mg/kg iv): 7.3%
- AUC (po) ([1]; 5 mg/kg po): 1267 ng·h/mL
- T1/2 ([1]; 5 mg/kg po): 7.32 h
- Tmax ([1]; 5 mg/kg po): 2 h
- IC50 (ROS1 (G2101C)): 83 nM
- IC50 (FLT3): < 10 nM and 3.5 nM
- IC50 (CLK1): 35 nM
- IC50 (CAMK2D): 39 nM
- IC50 (NUAK1): 47 nM
- IC50 (CAMK2G): 48 nM
- IC50 (EGFR): 69 nM
- IC50 (C-MET): 95 nM
- DC50 (ROS1 (G2032R)): 13.2 nM
Compound: COc1cc(N2CCC(N3CCN(CC4CCN(c5ccc6c(c5)CN(C5CCC(=O)NC5=O)C6=O)CC4)CC3)CC2)ccc1Nc1ncc(Cl)c(Nc2ccccc2P(C)(C)=O)n1 (centres unmarked) [9o, 3-(5-(4-((4-(1-(4-((5-Chloro-4-((2-(dimethylphosphoryl)phenyl)amino)pyrimidin-2-yl)amino)-3-methoxyphenyl)piperidin-4-yl)piperazin-1-yl)methyl)piperidin-1-yl)-1-oxoisoindolin-2-yl)piperidine-2,6-dione]
- TGI (tumor growth inhibition) ([2]; 10 mg/kg PO qd): 33%
- TGI (tumor growth inhibition) ([2]; 30 mg/kg PO qd): 78%
- kinases significantly degraded (proteomics, degrader-treated vs brigatinib-treated) (H2228 cells): only three kinases were significantly degraded
